Laboratory results taken from the CheMixHub viscosity set.

Assay: xn = mol fraction of the nth substance listed

COCCOCCOC + COC(=O)OC
viscosity [mPa·s], 101.33 kPa
Conditions	298.15 K	308.15 K	318.15 K
x1 = 0.0428	0.608	0.536	0.485
x1 = 0.0832	0.626	0.55	0.496
x1 = 0.149	0.66	0.576	0.516
x1 = 0.2102	0.693	0.6	0.536
x1 = 0.2752	0.723	0.626	0.556
x1 = 0.3253	0.752	0.647	0.571
x1 = 0.3937	0.784	0.674	0.592
x1 = 0.4775	0.818	0.701	0.615
x1 = 0.5765	0.855	0.733	0.641
x1 = 0.6623	0.884	0.758	0.661
x1 = 0.7219	0.903	0.774	0.675
x1 = 0.8014	0.93	0.792	0.691
x1 = 0.8649	0.949	0.807	0.702
x1 = 0.8944	0.958	0.813	0.708
x1 = 0.9047	0.961	0.816	0.71
x1 = 0.9232	0.966	0.821	0.713
x1 = 0.9316	0.969	0.823	0.714
x1 = 0.9372	0.97	0.823	0.715
x1 = 0.9528	0.975	0.826	0.718

ClC(Cl)C(Cl)Cl + CCO
viscosity [mPa·s], 101.32 kPa
Conditions	x2 = 0.167	x2 = 0.3109	x2 = 0.4362	x2 = 0.5461	x2 = 0.6435	x2 = 0.7303	x2 = 0.8081	x2 = 0.8783	x2 = 0.942
303.15 K	1.369	1.324	1.257	1.21	1.166	1.12	1.095	1.047	1.026
313.15 K	1.24	1.16	1.107	1.049	1.007	0.965	0.934	0.903	0.868
323.15 K	1.121	1.068	0.961	0.91	0.869	0.819	0.795	0.787	0.732

ClC(Cl)C(Cl)Cl + COC(C)=O
303.15 K, 101.3 kPa
Conditions	viscosity [mPa·s]
x2 = 0.103	1.379
x2 = 0.1999	1.268
x2 = 0.3012	1.147
x2 = 0.3998	1.029
x2 = 0.5031	0.8951
x2 = 0.6017	0.764
x2 = 0.6999	0.6464
x2 = 0.8014	0.5324
x2 = 0.9019	0.4308

Oc1ccccc1 + CN(C)c1ccccc1
viscosity [mPa·s], 101 kPa
Conditions	293.15 K	302.95 K	313.35 K
x1 = 0.0998	–	1.351	1.159
x1 = 0.114	1.684	–	–
x1 = 0.2041	–	1.629	1.354
x1 = 0.2122	2.045	–	–
x1 = 0.2884	2.415	–	–
x1 = 0.2958	–	1.936	1.57
x1 = 0.385	–	2.315	1.84
x1 = 0.3889	3.085	–	–
x1 = 0.4659	3.77	–	–
x1 = 0.477	–	2.83	2.185
x1 = 0.5458	4.7	–	–
x1 = 0.5549	–	3.33	2.51
x1 = 0.6187	5.64	–	–
x1 = 0.6224	–	3.93	2.855
x1 = 0.6851	6.75	–	–
x1 = 0.6955	–	4.705	3.34
x1 = 0.75	8.01	–	–
x1 = 0.7591	–	5.325	3.715
x1 = 0.8215	9.4	–	–
x1 = 0.8274	–	6.025	4.15
x1 = 0.8827	10.3	–	–
x1 = 0.8884	–	6.48	4.4
x1 = 0.9428	10.87	–	–
x1 = 0.9463	–	6.86	4.59
